Assay results reported in patent US20080058297A1, “Heterocyclic Compounds For Preventing And Treating Disorders Associated With Excessive Bone Loss” (Synta Pharmaceuticals Corp., priority 2003, published 2008).
pIC50: −log10 of the molar value. Read-outs that look alike come from different tables or passages of the source.

What was measured:
[1] = tested on: Human peripheral blood mononuclear cells (PBMC); assay: Inhibition of osteoclast formation (RANKL/M-CSF induced, TRAP staining); assay type: cell-based
Description: (§1) Human peripheral blood mononuclear cells (PBMC) were isolated from healthy donor blood. The cells were seeded in multi-well plates at 7.5×10^5 cells/ml in RPMI 1640 medium including 10% FBS. Osteoclast formation was induced with 20 ng/ml of recombinant human receptor activator of NF-kB-ligand (RANKL) and 10 ng/ml of human M-CSF in the presence of various doses of test compounds. After 48 hours of culture, RANKL and M-CSF was replenished and further cultured for 2 days. Then, the cultured cells were stained for tartrate-resistant acid phosphatase (TRAP). Osteoclasts were identified as TRAP-positive cells with more than 3 nuclei. Total cell viability was assessed by CCK-8 assay (Dojindo, Gaithersburg, Md.) with 24 hour incubation.
as §1, with “Isolated” for “isolated”

[2] = Total cell viability by CCK-8 assay; assay type: cell-based; settings: human
Description: as §1
as §1, with “Isolated” for “isolated”

[3] = 96 h, read-out: IC50 (compound concentration required for 50% inhibition of osteoclast formation), Table 2, 20 ng/ml RANKL + 10 ng/ml M-CSF, TRAP-positive cells with more than 3 nuclei
[4] = 96 h, read-out: IC50 (compound concentration required for 50% inhibition of osteoclast formation), Table 3, 20 ng/ml RANKL + 10 ng/ml M-CSF, TRAP-positive cells with more than 3 nuclei
[5] = 96 h, read-out: IC50 (compound concentration required for 50% inhibition of osteoclast formation), Table 1, 20 ng/ml RANKL + 10 ng/ml M-CSF, TRAP-positive cells with more than 3 nuclei

SMILES	pIC50 [1, 3]	CC50 at 24 h ([2]; Table 2, 24 hour incubation)	pIC50 [1, 5]	CC50 at 24 h ([2]; Table 1, 24 hour incubation)	also measured
c1cncc(OCCOc2nc(Nc3ccc4c(c3)oc3ccccc34)nc(N3CCOCC3)n2)c1 [Compound 114, Dibenzofuran-3-yl-{4-morpholin-4-yl-6-[2-(pyridin-3-yloxy)-ethoxy]-[1,3,5]triazin-2-yl}-amine]	7.62	> 1000 nM			
Cc1cccc(Nc2nc3c(N4CCOCC4)nc(OCCOc4ccccn4)nc3[nH]2)c1 [Example 63, {6-morpholin-4-yl-2-[2-(pyridin-2-yloxy)-ethoxy]-9H-purin-8-yl}-m-tolyl-amine]					pIC50 [1, 4]: 8.52; CC50 at 24 h ([2]; Table 3, 24 hour incubation): > 1000 nM
Cc1[nH]c2cc(Nc3nc(OCCOc4cccnc4)nc(N4CCOCC4)n3)ccc2c1C [Compound 115, (2,3-Dimethyl-1H-indol-6-yl)-{4-morpholin-4-yl-6-[2-(pyridin-3-yloxy)-ethoxy]-[1,3,5]triazin-2-yl}-amine]	7.80	> 1000 nM			
COc1ccc(N(C)c2nc(N3CCOCC3)c3nc(Nc4cccc(C)c4)[nH]c3n2)cc1 [Example 117, N^2-(4-Methoxy-phenyl)-N^2-methyl-6-morpholin-4-yl-N^8-m-tolyl-9H-purine-2,8-diamine]					pIC50 [1, 4]: 7.92; CC50 at 24 h ([2]; Table 3, 24 hour incubation): > 1000 nM
COc1ccc(CCOc2nc(Nc3ccc4c(c3)oc3ccccc34)nc(N3CCOCC3)n2)cc1OC [Compound 113, Dibenzofuran-3-yl-{4-[2-(3,4-dimethoxy-phenyl)-ethoxy]-6-morpholin-4-yl-[1,3,5]triazin-2-yl}-amine]	7.92	> 1000 nM			
Cc1cccc(Nc2nc(N3CCOCC3)c3nc(Nc4cccc(C)c4)n(C)c3n2)c1 [Example 116, 9-Methyl-6-morpholin-4-yl-N^2,N^8-di-m-tolyl-9H-purine-2,8-diamine]					pIC50 [1, 4]: 8.70; CC50 at 24 h ([2]; Table 3, 24 hour incubation): > 1000 nM
OCc1cccc(/C=N/Nc2cc(N3CCOCC3)nc(OCCc3ccc(O)cn3)n2)c1 [Compound 44, 6-(2-{4-[N′-(3-Hydroxymethyl-benzylidene)-hydrazino]-6-morpholin-4-yl-pyrimidin-2-yloxy}-ethyl)-pyridin-3-ol]			7.77	> 1000 nM	
C[C@]12CC[C@@H]3c4ccc(O)cc4CC[C@H]3[C@@H]1CC[C@@H]2O [17β-estradiol, reference compound]					pIC50 ([1]; read-out: IC50 (compound concentration required for 50% inhibition of osteoclast formation), Table 1, 20 ng/ml RANKL + 10 ng/ml M-CSF, TRAP-positive cells with more than 3 nuclei): 7.11; pIC50 ([1]; read-out: IC50 (compound concentration required for 50% inhibition of osteoclast formation), Table 2, 20 ng/ml RANKL + 10 ng/ml M-CSF, TRAP-positive cells with more than 3 nuclei): 7.11; pIC50 ([1]; read-out: IC50 (compound concentration required for 50% inhibition of osteoclast formation), Table 3, 20 ng/ml RANKL + 10 ng/ml M-CSF, TRAP-positive cells with more than 3 nuclei): 7.11
Cc1[nH]c2ccc(Nc3nc(OCCc4ccccn4)nc(N4CCOCC4)n3)cc2c1C [Compound 102]	8.52	> 1000 nM			
Cc1cccc(/C=N/Nc2cc(N3CCOCC3)nc(OCCc3cccc[n+]3[O-])n2)c1 [Compound 28, N-(3-methyl-benzylidene)-N′-{6-morpholin-4-yl-2-[2-(1-oxy-pyridin-2-yl)-ethoxy]-pyrimidin-4-yl}-hydrazine]			7.15	> 1000 nM	
Cc1cccc(Nc2nc(N3CCOCC3)c3nc(Nc4cccc(C)c4)[nH]c3n2)c1 [Example 79, 6-morpholin-4-yl-N^2,N^8-di-m-tolyl-9H-purine-2,8-diamine]					pIC50 [1, 4]: 8.05; CC50 at 24 h ([2]; Table 3, 24 hour incubation): > 1000 nM
Cc1cccc(/C=N/Nc2cc(N3CCOCC3)nc(OCCc3ccc(O)cn3)n2)c1 [Compound 43, 6-(2-{4-[N′-(3-Methyl-benzylidene)-hydrazino]-6-morpholin-4-yl-pyrimidin-2-yloxy}-ethyl)-pyridin-3-ol]			7.92	> 1000 nM	
C(=NNc1nc(OCCc2ccccn2)nc(N2CCOCC2)n1)c1c[nH]c2ccccc12 [Compound 116, N-(1H-indol-3-ylmethylene)-N′-[4-morpholin-4-yl-6-(2-pyridin-2-yl-ethoxy)-[1,3,5]triazin-2-yl]-hydrazine]	7.46	> 10000 nM			
Cc1cccc(/C=N/Nc2cc(N3CCOCC3)nc(OCCc3ccccn3)n2)c1 [Compound 12, N-(3-methyl-benzylidene)-N′-[6-morpholin-4-yl-2-(2-pyridin-2-yl-ethoxy)-pyrimidin-4-yl]-hydrazine]			7.82	3250 nM	
Cc1cccc(C=NNc2cc(N3CCOCC3)nc(OCC(O)c3ccccn3)n2)c1 (stereo not shown) [Compound 42, 2-{4-[N′-(3-Methyl-benzylidene)-hydrazino]-6-morpholin-4-yl-pyrimidin-2-yloxy}-1-pyridin-2-yl-ethanol]			8.10	> 1000 nM	
